Values joined by “and” are separate entries in the source; they are usually repeats but may differ in a detail not shown here. Equal entries are not always repeated.
Tests used:
Soybean = assay: Preemergent injury rating, soybean; format: in vivo; design: key: injury rating scale on which 4 = death
Method: (§1) Various of the compounds to be employed as active agent in accordance with the present invention were evaluated for preemergent application to various species of plants. In this evaluation, a soil was prepared consisting of one part masonry sand and one part shredded top soil blended together in a cement mixer. One gallon of this soil was placed in a 25 × 35 cm. galvanized flat and was patted down with a bench brush until level. A three-row marker was used to make 21/2 cm. deep furrows in approximately two-fifths of the flat. Crop seeds consisting of four kernels of corn, five cotton seeds and five soybean seeds were placed in these furrows. A four-row template was then placed on the remaining soil and the indicated approximate numbers of each of the following seeds were planted, one species to each section: foxtail (millet), 80-100 seeds; velvetleaf (40-50 seeds); rough pigweed (150-250 seeds); and large crabgrass (100-150 seeds).
(§2) Sufficient soil was added to cover the entire flat. Thus, the weed seeds were covered to a depth of about 6 mm. and the crop seeds were covered to a depth of about 3 cm.
(§3) In assaying the effect of the composition as preemergent herbicides, a flat prepared as above, taken either on the day of planting or on the next day, was placed in a chamber equipped with a turntable and an air exhaust. The herbicidal composition, either a spray-type emulsion or a wettable powder, was applied to the flat with a modified DeVilbiss atomizer hooked to an air source. Twelve and one-half milliliters of the composition under test were applied to each flat either on the day of planting or the succeeding day. Injury ratings and observations as to type of injury were made eleven to twelve days after treatment. The injury rating scale used was as follows:
(§4) 4--death When more than one determination was carried out at a given rate, an average value was calculated for the injury rating. Each compound evaluated was formulated as a spray by one of the following procedures. In one method the particular compound was wetted by grinding in a mortar with one part of polyoxyethylene sorbitan monolaurate. Five hundred parts of water were added slowly to the resultant creamy paste to give an aqueous dispersion with a surfactant concentration of 0.2 percent. This dispersion was entirely satisfactory for spray application. In a second procedure the compound was dissolved in one volume of acetone, and the acetone solution was diluted with nineteen volumes of water containing 0.1 percent of polyoxyethylene sorbitan monolaurate.
(§5) In the following table setting forth the results of the evaluation, column 1 gives the name of the compound under test; column 2, the rate in pounds per acre at which the compound was applied to the test flat; and the remaining columns, the injury to the particular plant seeds or seedlings as measured by the foregoing scale.

Foxtail [1] = assay: Preemergent injury rating, foxtail; format: in vivo, foxtail (millet); design: key: injury rating scale on which 4 = death
Method: as §1, §2, §3, §4, §5

Pigweed [2] = assay: Preemergent injury rating, pigweed; format: in vivo, rough pigweed; design: key: injury rating scale on which 4 = death
Method: as §1, §2, §3, §4, §5

Crabgrass [3] = assay: Preemergent injury rating, crabgrass; format: in vivo, large crabgrass; design: key: injury rating scale on which 4 = death
Method: as §1, §2, §3, §4, §5

Cotton = assay: Preemergent injury rating, cotton; format: in vivo; design: key: injury rating scale on which 4 = death
Method: as §1, §2, §3, §4, §5

Corn [4] = assay: Preemergent injury rating, corn; format: in vivo; design: key: injury rating scale on which 4 = death
Method: as §1, §2, §3, §4, §5

Sorghum = assay: General herbicidal effect alone/in combination, sorghum; format: in vivo; design: key: 0-10 scale: 0 = no injury, 10 = death; details: alone
Method: as §1, §2, §3, §4
(§6) 6-Chloro-1-hydroxy-2-(trifluoromethyl)-1H-imidazo(4,5-b)pyridine was evaluated in combination with 2-chloro-4-ethylamino-6-isopropylamino-s-triazine and separately in combination with 2-chloro-2',6'-diethyl-N-(methoxymethyl)acetanilide for the control of plants. The evaluations were conducted as described in Examples 49-52, except that the rates of compound differed and the species were different. General herbicidal effect was rated on a scale of 0-10, with 0 = no injury and 10 = death. Observations were also made for the following other specific phytotoxic effects.

Barnyard Grass = assay: General herbicidal effect alone/in combination, barnyard grass; format: in vivo; design: key: 0-10 scale: 0 = no injury, 10 = death; details: alone
Method: as §1, §2, §3, §4, §6

Large Crabgrass = assay: General herbicidal effect alone/in combination, large crabgrass; format: in vivo; design: key: 0-10 scale: 0 = no injury, 10 = death; details: alone, 1.0 lbs/A; listed as A
Method: as §1, §2, §3, §4, §6

Corn [5] = assay: General herbicidal effect alone/in combination, corn (second Corn column); format: in vivo; design: key: 0-10 scale: 0 = no injury, 10 = death; details: alone
Method: as §1, §2, §3, §4, §6

Corn [6] = assay: General herbicidal effect alone/in combination, corn (first Corn column); format: in vivo; design: key: 0-10 scale: 0 = no injury, 10 = death; details: alone
Method: as §1, §2, §3, §4, §6

Jimsonweed = assay: General herbicidal effect alone/in combination, jimsonweed; format: in vivo; design: key: 0-10 scale: 0 = no injury, 10 = death; details: alone
Method: as §1, §2, §3, §4, §6

Morning glory = assay: General herbicidal effect alone/in combination, morning glory; format: in vivo; design: key: 0-10 scale: 0 = no injury, 10 = death; details: alone
Method: as §1, §2, §3, §4, §6

Velvet Leaf [7] = assay: Preemergent injury rating, velvetleaf; format: in vivo; design: key: injury rating scale on which 4 = death
Method: as §1, §2, §3, §4, §5

Pigweed [8] = assay: General herbicidal effect alone/in combination, pigweed; format: in vivo; design: key: 0-10 scale: 0 = no injury, 10 = death; details: alone
Method: as §1, §2, §3, §4, §6

Ragweed = assay: General herbicidal effect alone/in combination, ragweed; format: in vivo; design: key: 0-10 scale: 0 = no injury, 10 = death; details: alone
Method: as §1, §2, §3, §4, §6

Lambs Quarter = assay: General herbicidal effect alone/in combination, lambsquarter; format: in vivo; design: key: 0-10 scale: 0 = no injury, 10 = death; details: alone, listed as A
Method: as §1, §2, §3, §4, §6

Velvet Leaf [9] = assay: General herbicidal effect alone/in combination, velvetleaf; format: in vivo; design: key: 0-10 scale: 0 = no injury, 10 = death; details: alone
Method: as §1, §2, §3, §4, §6

Foxtail Millet = assay: General herbicidal effect alone/in combination, foxtail millet; format: in vivo; design: key: 0-10 scale: 0 = no injury, 10 = death; details: alone
Method: as §1, §2, §3, §4, §6

Rice = assay: General herbicidal effect alone/in combination, rice; format: in vivo; design: key: 0-10 scale: 0 = no injury, 10 = death; details: alone
Method: as §1, §2, §3, §4, §6

Corn [10] = assay: Postemergent injury rating, corn; format: in vivo; design: key: injury rating scale, 4 = death
Method: as §1, §2, §3, §4
(§7) Representative compounds of the present invention were evaluated for postemergent application to plants including corn and several weed species. The evaluation was carried out in accordance with the procedures of Examples 49-52 except that the test solutions were applied about 9-12 days after the preparation and seeding of the flats.

Foxtail [11] = assay: Postemergent injury rating, foxtail; format: in vivo, foxtail (millet); design: key: injury rating scale, 4 = death
Method: as §1, §2, §3, §4, §7

Pigweed [12] = assay: Postemergent injury rating, pigweed; format: in vivo, rough pigweed; design: key: injury rating scale, 4 = death
Method: as §1, §2, §3, §4, §7

Crabgrass [13] = assay: Postemergent injury rating, crabgrass; format: in vivo, large crabgrass; design: key: injury rating scale, 4 = death
Method: as §1, §2, §3, §4, §7

## On1c(C(F)(F)F)nc2nc(Cl)ccc21 [5-chloro-1-hydroxy-2-(trifluoromethyl)-1H-imidazo(4,5-b)pyridine]
Soybean; 2 lbs/acre
  Injury Rating, Soybean: 0
Foxtail [1]; 2 lbs/acre
  Injury Rating, Foxtail: 2
Foxtail [1]; 8 lbs/acre
  Injury Rating, Foxtail: 4
Pigweed [2]; 2 lbs/acre
  Injury Rating, Pigweed: 3
Pigweed [2]; 8 lbs/acre
  Injury Rating, Pigweed: 3
Crabgrass [3]; 2 lbs/acre
  Injury Rating, Crabgrass: 3
Crabgrass [3]; 8 lbs/acre
  Injury Rating, Crabgrass: 3
Cotton; 2 lbs/acre
  Injury Rating, Cotton: 0
Corn [4]; 2 lbs/acre
  Injury Rating, Corn: 0
Corn [4]; 8 lbs/acre
  Injury Rating, Corn: 1

## On1c(C(F)(F)F)nc2ncc(Cl)cc21 [6-chloro-1-hydroxy-2-(trifluoromethyl)-1H-imidazo(4,5-b)pyridine]
Soybean; 1 lbs/acre
  Injury Rating, Soybean: 0
Soybean; 2 lbs/acre
  Injury Rating, Soybean: 0
Soybean; 4 lbs/acre
  Injury Rating, Soybean: 0
Soybean; 8 lbs/acre
  Injury Rating, Soybean: 1
Sorghum; 0.25 lbs/A
  herbicidal effect, Sorghum: 0
Sorghum; 1.0 lbs/A
  herbicidal effect, Sorghum: 8BS
Sorghum; 2.0 lbs/A
  herbicidal effect, Sorghum: 10D
Barnyard Grass; 0.25 lbs/A
  herbicidal effect, Barnyard Grass: 0
Barnyard Grass; 1.0 lbs/A, listed as A
  herbicidal effect, Barnyard Grass: 3S and 2S
Barnyard Grass; 2.0 lbs/A
  herbicidal effect, Barnyard Grass: 9BS
Large Crabgrass
  herbicidal effect, Large Crabgrass: 3S and 2S
Foxtail [1]; 1 lbs/acre
  Injury Rating, Foxtail: 3
Foxtail [1]; 2 lbs/acre
  Injury Rating, Foxtail: 3
Foxtail [1]; 4 lbs/acre
  Injury Rating, Foxtail: 3
Foxtail [1]; 8 lbs/acre
  Injury Rating, Foxtail: 3
Corn [5]; 0.25 lbs/A
  herbicidal effect, Corn: 0
Corn [5]; 0.5 lbs/A
  herbicidal effect, Corn: 0
Corn [5]; 1.0 lbs/A
  herbicidal effect, Corn: 0
Corn [6]; 0.25 lbs/A
  herbicidal effect, Corn: 0
Corn [6]; 0.5 lbs/A
  herbicidal effect, Corn: 0
Corn [6]; 1.0 lbs/A
  herbicidal effect, Corn: 0
Pigweed [2]; 1 lbs/acre
  Injury Rating, Pigweed: 4
Pigweed [2]; 2 lbs/acre
  Injury Rating, Pigweed: 4
Pigweed [2]; 4 lbs/acre
  Injury Rating, Pigweed: 4
Pigweed [2]; 8 lbs/acre
  Injury Rating, Pigweed: 4
Jimsonweed; 0.25 lbs/A, listed as A
  herbicidal effect, Jimsonweed: 4B and 2B
Jimsonweed; 0.5 lbs/A, listed as A
  herbicidal effect, Jimsonweed: 8BS and 5BS
Jimsonweed; 1.0 lbs/A
  herbicidal effect, Jimsonweed: 9BS
Jimsonweed; 2.0 lbs/A
  herbicidal effect, Jimsonweed: 9BS
Crabgrass [3]; 1 lbs/acre
  Injury Rating, Crabgrass: 4
Crabgrass [3]; 2 lbs/acre
  Injury Rating, Crabgrass: 3
Crabgrass [3]; 4 lbs/acre
  Injury Rating, Crabgrass: 4
Crabgrass [3]; 8 lbs/acre
  Injury Rating, Crabgrass: 4
Morning glory; 0.5 lbs/A
  herbicidal effect, Morning glory: 10D
Morning glory; 2.0 lbs/A
  herbicidal effect, Morning glory: 10D
Velvet Leaf [7]; 1 lbs/acre
  Injury Rating, Velvet Leaf: 2
Velvet Leaf [7]; 2 lbs/acre
  Injury Rating, Velvet Leaf: 4
Velvet Leaf [7]; 4 lbs/acre
  Injury Rating, Velvet Leaf: 4
Velvet Leaf [7]; 8 lbs/acre
  Injury Rating, Velvet Leaf: 3
Pigweed [8]; 0.25 lbs/A
  herbicidal effect, Pigweed: 0
Pigweed [8]; 0.5 lbs/A, listed as A
  herbicidal effect, Pigweed: 2S and 3S
Ragweed; 0.25 lbs/A, listed as A
  herbicidal effect, Ragweed: 2S and 3S
Ragweed; 1.0 lbs/A
  herbicidal effect, Ragweed: 8BS
Cotton; 1 lbs/acre
  Injury Rating, Cotton: 0
Cotton; 2 lbs/acre
  Injury Rating, Cotton: 0
Cotton; 4 lbs/acre
  Injury Rating, Cotton: 0
Cotton; 8 lbs/acre
  Injury Rating, Cotton: 2
Lambs Quarter; 1.0 lbs/A
  herbicidal effect, Lambs Quarter: 9SB and 6SB
Lambs Quarter; 2.0 lbs/A
  herbicidal effect, Lambs Quarter: 9BS and 8BS
Velvet Leaf [9]; 0.25 lbs/A
  herbicidal effect, Velvet leaf: 0
Velvet Leaf [9]; 0.5 lbs/A, listed as A
  herbicidal effect, Velvet leaf: 2S and 3S
Foxtail Millet; 0.25 lbs/A
  herbicidal effect, Foxtail Millet: 0
Foxtail Millet; 0.5 lbs/A
  herbicidal effect, Foxtail Millet: 2S
Foxtail Millet; 2.0 lbs/A
  herbicidal effect, Foxtail Millet: 10D
Corn [4]; 1 lbs/acre
  Injury Rating, Corn: 0
Corn [4]; 2 lbs/acre
  Injury Rating, Corn: 0
Corn [4]; 4 lbs/acre
  Injury Rating, Corn: 1
Corn [4]; 8 lbs/acre
  Injury Rating, Corn: 1
Rice; 0.25 lbs/A
  herbicidal effect, Rice: 0
Rice; 0.5 lbs/A
  herbicidal effect, Rice: 3B

## On1c(C(F)(F)F)nc2nccc(Cl)c21 [7-chloro-1-hydroxy-2-(trifluoromethyl)-1H-imidazo(4,5-b)pyridine]
Corn [10]; 4 lbs/acre
  Injury Rating, Corn: 0
Corn [10]; 8 lbs/acre
  Injury Rating, Corn: 1
Foxtail [11]; 4 lbs/acre
  Injury Rating, Foxtail: 1
Foxtail [11]; 8 lbs/acre
  Injury Rating, Foxtail: 3
Pigweed [12]; 4 lbs/acre
  Injury Rating, Pigweed: 3
Pigweed [12]; 8 lbs/acre
  Injury Rating, Pigweed: 3
Crabgrass [13]; 4 lbs/acre
  Injury Rating, Crabgrass: 1
Crabgrass [13]; 8 lbs/acre
  Injury Rating, Crabgrass: 2

## On1c(C(F)(F)C(F)F)nc2nc(Cl)c(Cl)cc21 [1-hydroxy-5,6-dichloro-2-(1,1,2,2-tetrafluoroethyl)-1H-imidazo(4,5-b)pyridine]
Soybean; 1 lbs/acre
  Injury Rating, Soybean: 0
Soybean; 2 lbs/acre
  Injury Rating, Soybean: 0
Soybean; 4 lbs/acre
  Injury Rating, Soybean: 1B
Foxtail [1]; 1 lbs/acre
  Injury Rating, Foxtail: 0
Foxtail [1]; 2 lbs/acre
  Injury Rating, Foxtail: 0
Foxtail [1]; 4 lbs/acre
  Injury Rating, Foxtail: 1BS
Foxtail [1]; 8 lbs/acre
  Injury Rating, Foxtail: 1S
Pigweed [2]; 1 lbs/acre
  Injury Rating, Pigweed: 1S
Pigweed [2]; 2 lbs/acre
  Injury Rating, Pigweed: 3BS
Pigweed [2]; 4 lbs/acre
  Injury Rating, Pigweed: 3BS
Pigweed [2]; 8 lbs/acre
  Injury Rating, Pigweed: 3BS
Crabgrass [3]; 1 lbs/acre
  Injury Rating, Crabgrass: 0
Crabgrass [3]; 2 lbs/acre
  Injury Rating, Crabgrass: 1BS
Crabgrass [3]; 4 lbs/acre
  Injury Rating, Crabgrass: 2BS
Crabgrass [3]; 8 lbs/acre
  Injury Rating, Crabgrass: 2B
Velvet Leaf [7]; 1 lbs/acre
  Injury Rating, Velvet Leaf: 0
Velvet Leaf [7]; 2 lbs/acre
  Injury Rating, Velvet Leaf: 1B
Velvet Leaf [7]; 4 lbs/acre
  Injury Rating, Velvet Leaf: 1B
Velvet Leaf [7]; 8 lbs/acre
  Injury Rating, Velvet Leaf: 3B
Cotton; 1 lbs/acre
  Injury Rating, Cotton: 0
Cotton; 2 lbs/acre
  Injury Rating, Cotton: 0
Cotton; 4 lbs/acre
  Injury Rating, Cotton: 0
Corn [4]; 1 lbs/acre
  Injury Rating, Corn: 0
Corn [4]; 2 lbs/acre
  Injury Rating, Corn: 0
Corn [4]; 4 lbs/acre
  Injury Rating, Corn: 0
Corn [4]; 8 lbs/acre
  Injury Rating, Corn: 0
